Data from patent publication US11492385B2, “Long-acting co-agonists of the glucagon and GLP-1 receptors” (Merck Sharp & Dohme Corp., priority 2015, dated 2022).
“Also recorded” adds a separate entry of the source. Starred links: 1 amine or outer side, 2 acyl side, 3 side chain; linkers in the order of their positions; H or OH if unused. Non-standard residues stand in square brackets, D forms with d. Groups on a side chain read outwards from the residue. No end group written: not given here. *: point of attachment. C16 diacid = O=C(O)CCCCCCCCCCCCCCC(=O)*; γGlu = O=C(O)[C@H](CCC(=O)[*:2])N[*:1]; Met(O2) = CS(=O)(=O)CC[C@H](N)C(=O)O; αMeD = C[C@](N)(CC(=O)O)C(=O)O; AEEA = NCCOCCOCC(=O)O; Aib = CC(C)(N)C(=O)O

What was measured:
[1] = Duration of action in DIO mice: body weight after a single sc dose; assay type: in vivo; settings: for change in body weight over four days: single sc dose at day zero, compared to liraglutide and semaglutide (FIG. 1A)
Procedure: (§1) In this example, the duration of action of several of the peptides or co-agonist peptides was evaluated in diet-induced obese (DIO) mice. The duration of action of the peptides were compared to the duration of action of Semaglutide (sema) and Liraglutide (lira). The peptides tested were SEQ ID NOs: 2, 19, 28, 29, and 33 (Seq 2, Seq 19, Seq 28, Seq 29, and Seq 33, respectively).

[2] = Duration of action in DIO mice: food intake after a single sc dose; assay type: in vivo; settings: for change in food intake over four days: single sc dose at day zero, compared to liraglutide and semaglutide (FIG. 1B)
Procedure: as §1

[3] = Duration of action in DIO mice: blood glucose after a single sc dose; assay type: in vivo; settings: single sc dose at day zero, compared to liraglutide and semaglutide (FIG. 1C)
Procedure: as §1

[4] = mouse, in vivo, sc
Procedure: DIO mice were divided into groups of eight mice per group and the initial average body weight, food intake and basal glucose of each group were matched. Each group of mice was subcutaneously (sc) injected with a single dose of peptide or vehicle control. The administered doses varied between 3 and 300 nmol/kg. […] A separate set of mice were treated with same dose of each peptide. Serial blood was taken at 5 hours, 24 hours, 48 hours and 72 hours post sc injection to measure drug exposure.

HXQGTFTSDYSKYLDARAAK( ? -γE-C16—OH)DFVQWL2DT—NH2 (H[Aib]QGTFTSDYSKYLDARAAK([AEEA-AEEA-γGlu-C16 diacid])DFVQWL[Met(O2)]DT-NH2; N-terminus assumed; SMILES CC(C)C[C@H](NC(=O)[C@H](Cc1ccc(O)cc1)NC(=O)[C@H](CCCCN)NC(=O)[C@H](CO)NC(=O)[C@H](Cc1ccc(O)cc1)NC(=O)[C@H](CC(=O)O)NC(=O)[C@H](CO)NC(=O)[C@@H](NC(=O)[C@H](Cc1ccccc1)NC(=O)[C@@H](NC(=O)CNC(=O)[C@H](CCC(N)=O)NC(=O)C(C)(C)NC(=O)[C@@H](N)Cc1c[nH]cn1)[C@@H](C)O)[C@@H](C)O)C(=O)N[C@@H](CC(=O)O)C(=O)N[C@@H](C)C(=O)N[C@@H](CCCNC(=N)N)C(=O)N[C@@H](C)C(=O)N[C@@H](C)C(=O)N[C@@H](CCCCNC(=O)COCCOCCNC(=O)COCCOCCNC(=O)CC[C@H](NC(=O)CCCCCCCCCCCCCCC(=O)O)C(=O)O)C(=O)N[C@@H](CC(=O)O)C(=O)N[C@@H](Cc1ccccc1)C(=O)N[C@H](C(=O)N[C@@H](CCC(N)=O)C(=O)N[C@@H](Cc1c[nH]c2ccccc12)C(=O)N[C@@H](CC(C)C)C(=O)N[C@@H](CCS(C)(=O)=O)C(=O)N[C@@H](CC(=O)O)C(=O)N[C@H](C(N)=O)[C@@H](C)O)C(C)C) [SEQ ID NO: 19]
change in body weight over eight days ([1]; single dose at 20 nmol/kg or 60 nmol/kg at day zero, compared to liraglutide and semaglutide (FIG. 3A)): more pronounced and sustained change in body weight | change in body weight over four days [1]: more pronounced and sustained change in body weight | change in food intake over eight days ([2]; single dose at 20 nmol/kg or 60 nmol/kg at day zero, compared to liraglutide and semaglutide (FIG. 3B)): comparable to liraglutide or semiglutide in reducing food intake | change in food intake over four days [2]: more sustained reduction in food intake | blood glucose lowering effect over four days [3]: greater reduction in blood glucose | PK over three days [4]: more prolonged PK

HXQGTFTSDYSKYLDARAAK( ? -γE-C18—OH)DFVQWL2αMDT—NH2 (H[Aib]QGTFTSDYSKYLDARAAK([AEEA-AEEA-γGlu-C18‑OH])DFVQWL[Met(O2)][αMeD]T-NH2) [SEQ ID NO: 33]
change in body weight over four days ([1]; listed as Seq 33): more pronounced and sustained change in body weight; also recorded: particularly pronounced | change in food intake over four days ([2]; listed as Seq 33): more sustained reduction in food intake; also recorded: particularly evident | blood glucose lowering effect over four days ([3]; listed as Seq 33): greater reduction in blood glucose; also recorded: particularly effective | PK over three days [4]: more prolonged PK

HXQGTFTSDYSKYLDARAAK( ? -γE-C18—OH)DFVQWL2DT—NH2 (H[Aib]QGTFTSDYSKYLDARAAK([AEEA-AEEA-γGlu-C18‑OH])DFVQWL[Met(O2)]DT-NH2) [SEQ ID NO: 29]
change in body weight over four days ([1]; listed as Seq 29): more pronounced and sustained change in body weight; also recorded: particularly pronounced | change in food intake over four days ([2]; listed as Seq 29): more sustained reduction in food intake; also recorded: particularly evident | blood glucose lowering effect over four days ([3]; listed as Seq 29): greater reduction in blood glucose | blood glucose lowering effect over four days ([3]; listed as Seq29): particularly effective
